Measurements as given in patent US20030087887A1, “Novel fusidic acid derivatives” (priority 2001, published 2003).
In brackets after ≈: the same amount, converted by molar mass.

Legend:
Format in all cases: cell-based
S. aureus N6 = experiment: MIC, agar diffusion, S. aureus N6; conditions: Staphylococcus aureus; S. aureus N6 (Fus. resistant); read-out: in vitro activities MIC
Excerpt: (§1) In vitro investigations have shown a relatively high potency of compounds of the invention against all bacteria including gram-positive and gram-negative strains (Staphylococci, Streptococci, Corynebacteriae, Mycobacteriae, Proteus, Propionibacterium, Pseudomonas, Neisseriae, E. coli) and fungal strains (Candida and Aspergillus). […] In addition, the studies of post-antibiotic effects point towards a strong bactericidal effect of the compounds of the invention. […] The potency of new polyaminated fusidic acid analogues is estimated by comparing the inhibition of growth of different microorganisms produced by known concentrations of the analogue to be examined and a reference compound such as fusidic acid. The microbiological assay set up is in agreement with the European Pharmacopoeia 3rd edition (1997). It is an agar diffusion method where the same volume of the tested solution is added to cavities in agar. The inhibition zones are function of the concentration of the fusidic acid analogue used. All assays are run with fusidic acid as reference substance.

S. aureus CJ200 = experiment: MIC, agar diffusion, S. aureus CJ200; conditions: Staphylococcus aureus, read-out: in vitro activities MIC
Excerpt: as §1

[1] = system: Pseudomonas aeruginosa BA17; experiment: MIC, agar diffusion, Pseudomonas aeruginosa BA17; conditions: read-out: in vitro activities MIC
Excerpt: as §1

[2] = system: Saccaromyces cervisiae ZZ7; experiment: MIC, agar diffusion, Saccaromyces cervisiae ZZ7; conditions: Saccharomyces cerevisiae, read-out: in vitro activities MIC
Excerpt: as §1

Asbergillus niger ZM35 = experiment: MIC, agar diffusion, Asbergillus niger ZM35; conditions: Aspergillus niger, read-out: in vitro activities MIC
Excerpt: as §1

[3] = system: Propionibacterium acnes FN33; experiment: MIC, agar diffusion, Propionibacterium acnes FN33; conditions: Cutibacterium acnes, read-out: in vitro activities MIC
Excerpt: as §1

S. aureus CJ234F = experiment: MIC, agar diffusion, S. aureus CJ234F; conditions: Staphylococcus aureus; S. aureus CJ234F (MRSA, Fus. resistant); read-out: in vitro activities MIC
Excerpt: as §1

E. coli HA165 = experiment: MIC, agar diffusion, E. coli HA165; conditions: Escherichia coli, read-out: in vitro activities MIC
Excerpt: as §1

[4] = system: Streptococcus pyogenes EC88; experiment: MIC, agar diffusion, Streptococcus pyogenes EC88; conditions: read-out: in vitro activities MIC
Excerpt: as §1

S. epidermis CK5 = experiment: MIC, agar diffusion, S. epidermis CK5; conditions: Staphylococcus epidermidis, read-out: in vitro activities MIC
Excerpt: as §1

S. aureus CJ247 = experiment: MIC, agar diffusion, S. aureus CJ247; conditions: Staphylococcus aureus, read-out: in vitro activities MIC
Excerpt: as §1

Candida albicans ZA = experiment: MIC, agar diffusion, Candida albicans ZA; conditions: read-out: in vitro activities MIC
Excerpt: as §1

[5] = system: Corynebacterium xerosis FF; experiment: MIC, agar diffusion, Corynebacterium xerosis FF; conditions: read-out: in vitro activities MIC
Excerpt: as §1

[6] = system: Streptococcus faecium EI19; experiment: MIC, agar diffusion, Streptococcus faecium EI19; conditions: Enterococcus faecium; Streptococcus faecium EI19 (Penicillin resistant); read-out: in vitro activities MIC
Excerpt: as §1

## CC(=O)O[C@H]1C[C@@]2(C)C(CCC3[C@@]4(C)CC[C@@H](OS(=O)(=O)O)[C@@H](C)C4CC[C@@]32C)[C@@H]1[C@H](CCCC(C)C)C(=O)NCCCNCCCNCCCN (stereo partly drawn) [Compound 180]
S. aureus N6
  MIC: 1 µg/mL (≈ 1.32 µM)
S. aureus CJ200
  MIC: 1 µg/mL (≈ 1.32 µM)
[1]
  MIC: 64 µg/mL (≈ 84.8 µM)
[2]
  MIC: 125 µg/mL (≈ 166 µM)
Asbergillus niger ZM35
  MIC: 4 µg/mL (≈ 5.3 µM)
[3]
  MIC: 1 µg/mL (≈ 1.32 µM)
S. aureus CJ234F
  MIC: 1 µg/mL (≈ 1.32 µM)
E. coli HA165
  MIC: 16 µg/mL (≈ 21.2 µM)
[4]
  MIC: 16 µg/mL (≈ 21.2 µM)
S. epidermis CK5
  MIC: 4 µg/mL (≈ 5.3 µM)
S. aureus CJ247
  MIC: 1 µg/mL (≈ 1.32 µM)
Candida albicans ZA
  MIC: 64 µg/mL (≈ 84.8 µM)
[5]
  MIC: 1 µg/mL (≈ 1.32 µM)

## CC(=O)O[C@H]1C[C@@]2(C)C(C[C@@H](O)C3[C@@]4(C)CC[C@@H](O)[C@@H](C)C4CC[C@@]32C)[C@@H]1[C@H](CCCC(C)C)C(=O)NCCCCNCCCN (stereo partly drawn) [Compound 121, 21-N-{4′-[(3′-aminopropyl)amino]butyl}-17R,20S,24,25-tetrahydrofusid-21-amide]
S. aureus N6
  MIC: 16 µg/mL (≈ 24.7 µM)
S. aureus CJ200
  MIC: 4 µg/mL (≈ 6.17 µM)
[6]
  MIC: 16 µg/mL (≈ 24.7 µM)
[2]
  MIC: 16 µg/mL (≈ 24.7 µM)
Asbergillus niger ZM35
  MIC: 64 µg/mL (≈ 98.8 µM)
[3]
  MIC: 4 µg/mL (≈ 6.17 µM)
S. aureus CJ234F
  MIC: 4 µg/mL (≈ 6.17 µM)
E. coli HA165
  MIC: 16 µg/mL (≈ 24.7 µM)
[4]
  MIC: 16 µg/mL (≈ 24.7 µM)
S. epidermis CK5
  MIC: 4 µg/mL (≈ 6.17 µM)
S. aureus CJ247
  MIC: 4 µg/mL (≈ 6.17 µM)
Candida albicans ZA
  MIC: 16 µg/mL (≈ 24.7 µM)
[5]
  MIC: 4 µg/mL (≈ 6.17 µM)

## CC(=O)O[C@H]1C[C@@]2(C)C(C[C@@H](O)C3[C@@]4(C)CC[C@@H](O)[C@@H](C)C4CC[C@@]32C)[C@@H]1[C@H](CCCC(C)C)C(=O)NCCCNCCCCNCCCN (stereo partly drawn) [Compound 125, 21-N-[3′-({4′-[(3′-aminopropyl)amino]butyl}amino)propyl]-17R,20S,24,25-tetrahydrofusid-21-amide]
S. aureus N6
  MIC: 1 µg/mL (≈ 1.42 µM)
S. aureus CJ200
  MIC: 1 µg/mL (≈ 1.42 µM)
[6]
  MIC: 16 µg/mL (≈ 22.7 µM)
[1]
  MIC: 16 µg/mL (≈ 22.7 µM)
[2]
  MIC: 16 µg/mL (≈ 22.7 µM)
Asbergillus niger ZM35
  MIC: 16 µg/mL (≈ 22.7 µM)
[3]
  MIC: 1 µg/mL (≈ 1.42 µM)
S. aureus CJ234F
  MIC: 1 µg/mL (≈ 1.42 µM)
E. coli HA165
  MIC: 16 µg/mL (≈ 22.7 µM)
[4]
  MIC: 4 µg/mL (≈ 5.67 µM)
S. epidermis CK5
  MIC: 1 µg/mL (≈ 1.42 µM)
S. aureus CJ247
  MIC: 1 µg/mL (≈ 1.42 µM)
Candida albicans ZA
  MIC: 16 µg/mL (≈ 22.7 µM)
[5]
  MIC: 1 µg/mL (≈ 1.42 µM)

## CC(C)CCCC(C(=O)NCCCCNCCCN)[C@H]1CC[C@@]2(C)C1CCC1[C@@]3(C)CC[C@@H](O)[C@@H](C)C3CC[C@@]12C (stereo partly drawn) [Compound 154, 21-N-{4′-[(3′-aminopropyl)amino]butyl}-11-desoxy-16-desacetoxy-17S,20,24,25-tetrahydrofusid-21-amide]
S. aureus N6
  MIC: 4 µg/mL (≈ 6.97 µM)
S. aureus CJ200
  MIC: 4 µg/mL (≈ 6.97 µM)
[1]
  MIC: 16 µg/mL (≈ 27.9 µM)
[2]
  MIC: > 125 µg/mL
Asbergillus niger ZM35
  MIC: > 125 µg/mL
S. aureus CJ234F
  MIC: 4 µg/mL (≈ 6.97 µM)
E. coli HA165
  MIC: 8 µg/mL (≈ 13.9 µM)
S. epidermis CK5
  MIC: 1 µg/mL (≈ 1.74 µM)
S. aureus CJ247
  MIC: 4 µg/mL (≈ 6.97 µM)
Candida albicans ZA
  MIC: > 125 µg/mL
[5]
  MIC: 0.5 µg/mL (≈ 0.871 µM)

## CC(=O)O[C@H]1C[C@@]2(C)C(CCC3[C@@]4(C)CC[C@@H](OS(=O)(=O)O)[C@@H](C)C4CC[C@@]32C)[C@@H]1[C@H](CCCC(C)C)C(=O)NCCCNCCCCNCCCN (stereo partly drawn) [Compound 177, 21-N-[3′-({4′-[(3′-aminopropyl)amino]butyl}amino)propyl]-3-OSO3-11-desoxy-17,20,24,25-tetrahydrofusid-21-amide]
S. aureus N6
  MIC: 4 µg/mL (≈ 5.2 µM)
S. aureus CJ200
  MIC: 1 µg/mL (≈ 1.3 µM)
[1]
  MIC: 16 µg/mL (≈ 20.8 µM)
[2]
  MIC: 125 µg/mL (≈ 163 µM)
Asbergillus niger ZM35
  MIC: 16 µg/mL (≈ 20.8 µM)
[3]
  MIC: 1 µg/mL (≈ 1.3 µM)
S. aureus CJ234F
  MIC: 1 µg/mL (≈ 1.3 µM)
E. coli HA165
  MIC: 16 µg/mL (≈ 20.8 µM)
[4]
  MIC: 4 µg/mL (≈ 5.2 µM)
S. epidermis CK5
  MIC: 1 µg/mL (≈ 1.3 µM)
S. aureus CJ247
  MIC: 1 µg/mL (≈ 1.3 µM)
Candida albicans ZA
  MIC: 64 µg/mL (≈ 83.2 µM)
[5]
  MIC: 1 µg/mL (≈ 1.3 µM)

## CC(C)CCCC(C(=O)NCCNCCCNCCN)[C@H]1CC[C@@]2(C)C1CCC1[C@@]3(C)CC[C@@H](O)[C@@H](C)C3CC[C@@]12C (stereo partly drawn) [Compound 152, 21-N-[2′-({3′-[(2′-aminoethyl)amino]propyl}amino)ethyl]-11-desoxy-16-desacetoxy-17S,20,24,25-tetrahydrofusid-21-amide]
S. aureus N6
  MIC: 4 µg/mL (≈ 6.79 µM)
S. aureus CJ200
  MIC: 4 µg/mL (≈ 6.79 µM)
[1]
  MIC: 8 µg/mL (≈ 13.6 µM)
[2]
  MIC: > 125 µg/mL
Asbergillus niger ZM35
  MIC: > 125 µg/mL
S. aureus CJ234F
  MIC: 4 µg/mL (≈ 6.79 µM)
E. coli HA165
  MIC: 4 µg/mL (≈ 6.79 µM)
S. epidermis CK5
  MIC: 2 µg/mL (≈ 3.4 µM)
S. aureus CJ247
  MIC: 4 µg/mL (≈ 6.79 µM)
Candida albicans ZA
  MIC: > 125 µg/mL
[5]
  MIC: 1 µg/mL (≈ 1.7 µM)
